# Experimental data reported in ChEMBL document CHEMBL1687734, “Pharmacokinetics of EDP-420 after multiple oral doses in healthy adult volunteers and in a bioequivalence study” (Antimicrob Agents Chemother, 2009).
# How the values were obtained:
# [1] = Tmax in 8 hrs fasted healthy human plasma at 200 mg, po administered as single dose of suspension; type: ADME, organism-based
# [2] = AUC (0 to last) in 8 hrs fasted healthy human plasma at 200 mg, po administered as single dose of suspension; type: ADME, organism-based; parameters: dose 200 mg, route oral, time 0 - last
# [3] = AUC (0 to last) in high-fat fed healthy human plasma at 200 mg, po administered as single dose of two-100 mg capsules; type: ADME, organism-based; parameters: dose 200 mg, time 0 - last, route oral
# [4] = AUC (0 to infinity) in high-fat fed healthy human plasma at 200 mg, po administered as single dose of two-100 mg capsules; type: ADME, organism-based; parameters: dose 200 mg, route oral, time infinity
# [5] = Half life in 8 hrs fasted healthy human plasma at 200 mg, po administered as single dose of suspension; type: ADME, organism-based
# [6] = Half life in 8 hrs fasted healthy human plasma at 200 mg, po administered as single dose of two-100 mg capsules; type: ADME, organism-based
# [7] = Half life in high-fat fed healthy human plasma at 200 mg, po administered as single dose of two-100 mg capsules; type: ADME, organism-based
# Homo sapiens [8] = assay: Ratio of AUC (0 to infinity) in high-fat fed healthy human plasma at 200 mg, po administered as single dose of two-100 mg capsules to AUC (0 to infinity) in high-fat fed healthy human plasma assessed as EDP-420 9-keto level at 200 mg, po administered as single dose of two-100 mg capsules; type: ADME, organism-based; details: in vivo
# [9] = AUC (0 to 24 hrs) in Epithelial lining fluid of healthy human at 400 mg, po administered as single dose; type: ADME, organism-based; details: read-out: Drug uptake
# [10] = AUC (0 to 24 hrs) in Alveolar macrophage of healthy human at 400 mg, po administered as single dose; type: ADME, organism-based; details: alveolar macrophages, read-out: Drug uptake
# [11] = Ratio of AUC (0 to 24 hrs) in epithelial lining fluid of healthy human to AUC (0 to 24 hrs) in healthy human plasma at 400 mg, po administered as single dose; type: ADME, organism-based
# [12] = Drug concentration in Epithelial lining fluid of healthy human at 400 mg, po administered as single dose after 24 hrs; type: ADME, organism-based; details: read-out: Drug uptake
# Homo sapiens [13] = assay: Toxicity in healthy human assessed as occurrence of mortality at 400 mg administered once on day 1 followed by 200 mg once daily for 2 days during 3 days of treatment; type: organism-based; details: in vivo
# Homo sapiens [14] = assay: Toxicity in healthy human assessed as severe adverse events at 400 mg administered once on day 1 followed by 200 mg once daily for 2 days during 3 days of treatment; type: organism-based; details: in vivo
# Homo sapiens [15] = assay: Toxicity in healthy human in 8 hrs fasted healthy human assessed as incidence of severe adverse events at 200 mg, po administered as single dose of suspension; type: organism-based; details: in vivo
# Homo sapiens [16] = assay: Toxicity in healthy human in 8 hrs fasted healthy human assessed as incidence of severe adverse events at 200 mg, po administered as single dose of two-100 mg capsules; type: organism-based; details: in vivo
# Homo sapiens [17] = assay: Toxicity in healthy human in 8 hrs fasted healthy human assessed as changes in liver functions at 200 mg, po administered as single dose of suspension; type: organism-based; details: in vivo
# Homo sapiens [18] = assay: Toxicity in healthy human in 8 hrs fasted healthy human assessed as changes in liver functions at 200 mg, po administered as single dose of two-100 mg capsules; type: organism-based; details: in vivo
# Homo sapiens [19] = assay: Toxicity in healthy human in 8 hrs fasted healthy human assessed as changes in vital signs at 200 mg, po administered as single dose of suspension; type: organism-based; details: in vivo
# Homo sapiens [20] = assay: Toxicity in healthy human in 8 hrs fasted healthy human assessed as changes in vital signs at 200 mg, po administered as single dose of two-100 mg capsules; type: organism-based; details: in vivo
# Homo sapiens [21] = assay: Toxicity in high-fat fed healthy human assessed as changes in vital signs at 200 mg, po administered as single dose of two-100 mg capsules; type: organism-based; details: in vivo
# Homo sapiens [22] = assay: Toxicity in healthy human in 8 hrs fasted healthy human assessed as changes in ECG at 200 mg, po administered as single dose of two-100 mg capsules; type: organism-based; details: in vivo
# Homo sapiens [23] = assay: Toxicity in high-fat fed healthy human assessed as changes in ECG at 200 mg, po administered as single dose of two-100 mg capsules; type: organism-based; details: in vivo
# Homo sapiens [24] = assay: Toxicity in healthy human in 8 hrs fasted healthy human assessed as changes in physical examinations at 200 mg, po administered as single dose of suspension; type: organism-based; details: in vivo
# Homo sapiens [25] = assay: Toxicity in high-fat fed healthy human assessed as changes in physical examinations at 200 mg, po administered as single dose of two-100 mg capsules; type: organism-based; details: in vivo
# [26] = Tmax in healthy human plasma at 200 mg, po once daily for 3 days measured after 1 day; type: ADME, organism-based
# [27] = AUC (0 to last) in healthy human plasma at 200 mg, po once daily for 3 days measured after 3 days; type: ADME, organism-based; parameters: dose 200 mg, route oral, time 0 - last
# [28] = AUC (0 to infinity) in healthy human plasma at 200 mg, po once daily for 3 days measured after 3 days; type: ADME, organism-based; parameters: dose 200 mg, route oral, time infinity
# Homo sapiens [29] = assay: Ratio of AUC (0 to 24 hrs) in healthy human plasma at 200 mg, po once daily for 3 days measured on day 3 to AUC (0 to 24 hrs) in healthy human plasma at 200 mg, po once daily for 3 days measured on day 1; type: ADME, organism-based; details: in vivo
# [30] = Half life in healthy human plasma at 200 mg, po once daily for 3 days measured after 3 days; type: ADME, organism-based
# [31] = Cmax in healthy human plasma at loading dose of 400 mg/day, po once daily for 3 days measured after 1 day; type: ADME, organism-based; parameters: dose 400 mg/day, route oral
# [32] = Tmax in healthy human plasma at loading dose of 400 mg/day, po once daily for 3 days measured after 1 day; type: ADME, organism-based
# [33] = AUC (0 to last) in healthy human plasma at loading dose of 400 mg/day, po once daily for 3 days measured after 1 day; type: ADME, organism-based; parameters: dose 400 mg/day, time 0 - last, route oral
# [34] = Cmax in healthy human plasma at 400 mg administered once on day 1 followed by 200 mg once daily for 2 days during 3 days of treatment measured after 3 days; type: ADME, organism-based; parameters: dose 400 mg
# [35] = Tmax in healthy human plasma at 400 mg administered once on day 1 followed by 200 mg once daily for 2 days during 3 days of treatment measured after 3 days; type: ADME, organism-based
# [36] = AUC (0 to last) in healthy human plasma at 400 mg administered once on day 1 followed by 200 mg once daily for 2 days during 3 days of treatment measured after 3 days; type: ADME, organism-based; parameters: dose 400 mg, time 0 - last
# [37] = AUC (0 to infinity) in healthy human plasma at 400 mg administered once on day 1 followed by 200 mg once daily for 2 days during 3 days of treatment measured after 3 days; type: ADME, organism-based; parameters: dose 400 mg, time infinity
# Homo sapiens [38] = assay: Ratio of AUC (0 to 24 hrs) in healthy human plasma at loading dose of 400 mg/day, po once daily measured on 1 day to AUC (0 to 24 hrs) in healthy human plasma at 400 mg administered once on day 1 followed by 200 mg once daily for 2 days during 3 days of treatment measured on day 3; type: ADME, organism-based; details: in vivo
# [39] = Half life in healthy human plasma at 400 mg administered once on day 1 followed by 200 mg once daily for 2 days during 3 days of treatment measured after 3 days; type: ADME, organism-based
# [40] = Cmax in high-fat fed healthy human plasma at 200 mg, po administered as single dose of two-100 mg capsules; type: ADME, organism-based; parameters: dose 200 mg, route oral
smiles,measurement,setting,value
CC[C@H]1OC(=O)[C@H](C)C(=O)[C@H](C)[C@@H](O[C@@H]2O[C@H](C)C[C@H](N(C)C)[C@H]2O)[C@@]2(C)C[C@@H](C)/C(=N\C(C)=O)[C@H](C)[C@@H](OC/C(=N\OCc3ccc(-n4cccn4)nc3)CO2)[C@]1(C)O [MODITHROMYCIN],Tmax,[1],3.5 h
same,AUC(0-t),[2],8.27 µg·h/mL
same,AUC(0-t),[3],8.94 µg·h/mL
same,AUC(0-inf),[4],9.04 µg·h/mL
same,half-life,[5],16.8 h
same,half-life,[6],16.9 h
same,half-life,[7],16.9 h
same,Ratio,Homo sapiens [8],0.147
same,AUC,[9],212 µg·h/mL
same,AUC,[10],2560 µg·h/mL
same,Kp,[11],20.3
same,concentration at 24 h,[12],6500 ng/mL
same,Activity,Homo sapiens [13],Non-toxic
same,Activity,Homo sapiens [14],Non-toxic
same,Activity,Homo sapiens [15],Non-toxic
same,Activity,Homo sapiens [16],Non-toxic
same,Activity,Homo sapiens [17],Non-toxic
same,Activity,Homo sapiens [18],Non-toxic
same,Activity,Homo sapiens [19],Non-toxic
same,Activity,Homo sapiens [20],Non-toxic
same,Activity,Homo sapiens [21],Non-toxic
same,Activity,Homo sapiens [22],Non-toxic
same,Activity,Homo sapiens [23],Non-toxic
same,Activity,Homo sapiens [24],Non-toxic
same,Activity,Homo sapiens [25],Non-toxic
same,Tmax,[26],3.5 h
same,AUC(0-t) at 72 h,[27],16.4 µg·h/mL
same,AUC(0-inf),[28],16.4 µg·h/mL
same,Ratio AUC,Homo sapiens [29],1.41
same,half-life,[30],17.4 h
same,Cmax,[31],548 ng/mL
same,Tmax,[32],4 h
same,AUC(0-t) at 24 h,[33],8.1 µg·h/mL
same,Cmax,[34],514 ng/mL
same,Tmax,[35],3.5 h
same,AUC(0-t),[36],15 µg·h/mL
same,AUC(0-inf),[37],15.1 µg·h/mL
same,Ratio AUC,Homo sapiens [38],0.99
same,half-life,[39],17.7 h
same,Cmax,[40],394 ng/mL
